Results reported in ChEMBL document CHEMBL1201862, “PubChem BioAssay data set” (2004).
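The compound was tested at five concentrations on cells cultured in 96-well plates, with a 48-hour exposure period. Here, GI50 denotes the concentration required for 50% inhibition of growth.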 Calls of active or inactive are those of the source. Rule as the data show it: active = GI50 up to about 1.1 µM and inactive = higher.

Columns and labels:
Test in all cases: NCI-60 cell line screen, 48 h
[1] = tested on: SF-268
[2] = tested on: KM12
[3] = tested on: A549
[4] = tested on: OVCAR-4
[5] = tested on: KM-20L2
[6] = tested on: UACC-257
[7] = tested on: OVCAR-3
[8] = tested on: OVCAR-5
[9] = tested on: SR
[10] = tested on: TK-10
[11] = tested on: NCI-H522
[12] = tested on: NCI-H226
[13] = tested on: ACHN
[14] = tested on: M14
[15] = tested on: SF-539
[16] = tested on: UO-31
[17] = tested on: CCRF-CEM
[18] = tested on: MOLT-4
[19] = tested on: A498

Row | Structure (SMILES) | GI50 [1] | GI50 [2] | GI50 [3] | GI50 [4] | GI50 [5] | GI50 [6] | GI50 [7] | GI50 [8] | GI50 [9] | GI50 [10] | GI50 [11] | GI50 [12] | GI50 [13] | GI50 [14] | GI50 [15] | GI50 [16] | GI50 [17] | GI50 [18] | GI50 [19]
1 | CC(c1ccccc1)N1O[C@]12CC[C@@]1(C)C(CCCC13OCCO3)C2 (some centres undefined) | 43.6 µM (inactive) | 21.3 µM (inactive) | 24.5 µM (inactive) | 17.5 µM (inactive) | > 100 µM (inactive) | 21.4 µM (inactive) | 18.7 µM (inactive) | > 100 µM (inactive) | 16.7 µM (inactive) | 18.3 µM (inactive) | 17.2 µM (inactive) | > 100 µM (inactive) | 16.5 µM (inactive) | 17.6 µM (inactive) | 56.2 µM (inactive) | 18 µM (inactive) | – | – | –
2 | CC(=O)N(C(C)=O)C1=C2c3ccccc3N(S(=O)(=O)c3ccccc3)C2n2c(=O)n(-c3ccccc3)c(=O)n2C1 (centres undefined) | > 100 µM (inactive) | 34.7 µM (inactive) | 65.6 µM (inactive) | – | 34.2 µM (inactive) | 44.2 µM (inactive) | 25.5 µM (inactive) | 30.6 µM (inactive) | 5.78 µM (inactive) | 36.8 µM (inactive) | 17.1 µM (inactive) | – | 30.9 µM (inactive) | 27.3 µM (inactive) | 19.9 µM (inactive) | 29.7 µM (inactive) | 35 µM (inactive) | – | –
3 | NC(=O)N/N=C(/Cc1nc2ccc(C(=O)c3ccccc3)cc2nc1O)C(=O)Nc1ccc(C(F)(F)F)cc1[N+](=O)[O-] | > 100 µM (inactive) | 84.5 µM (inactive) | > 100 µM (inactive) | > 100 µM (inactive) | 98.2 µM (inactive) | > 100 µM (inactive) | 43.4 µM (inactive) | > 100 µM (inactive) | 45.4 µM (inactive) | > 100 µM (inactive) | 22.6 µM (inactive) | – | > 100 µM (inactive) | 85.9 µM (inactive) | 66.5 µM (inactive) | 51.5 µM (inactive) | 36.5 µM (inactive) | 6.1 µM (inactive) | > 100 µM (inactive)
4 | C#CCOCn1cnc2c(S)ncnc21 | > 100 µM (inactive) | > 100 µM (inactive) | > 100 µM (inactive) | > 100 µM (inactive) | > 100 µM (inactive) | > 100 µM (inactive) | > 100 µM (inactive) | > 100 µM (inactive) | – | > 100 µM (inactive) | > 100 µM (inactive) | > 100 µM (inactive) | > 100 µM (inactive) | > 100 µM (inactive) | – | > 100 µM (inactive) | > 100 µM (inactive) | – | > 100 µM (inactive)
5 | O=C1/C(=C/c2ccccc2Cl)COc2ccc(Br)cc21 | > 100 µM (inactive) | 22.4 µM (inactive) | 97.3 µM (inactive) | – | > 100 µM (inactive) | > 100 µM (inactive) | 37.3 µM (inactive) | > 100 µM (inactive) | – | > 100 µM (inactive) | 20.6 µM (inactive) | – | > 100 µM (inactive) | – | 52.8 µM (inactive) | 55.7 µM (inactive) | 4.49 µM (inactive) | 18 µM (inactive) | > 100 µM (inactive)
6 | CC12C=C[C@]3(CC[C@@H]4[C@@](C)(CO)CCC[C@]4(C)C3CC1)C2 (some centres undefined) | 17.9 µM (inactive) | > 44.9 µM (inactive) | 18.2 µM (inactive) | 13.6 µM (inactive) | 0.382 µM (active) | 18.5 µM (inactive) | 18.2 µM (inactive) | 6.01 µM (inactive) | 16 µM (inactive) | 20.1 µM (inactive) | 11.5 µM (inactive) | – | 18.1 µM (inactive) | 15.7 µM (inactive) | 16.4 µM (inactive) | 17.8 µM (inactive) | 19.9 µM (inactive) | 23.6 µM (inactive) | 22.9 µM (inactive)
7 | CCCCCN(CCCCC)C(=O)[C@H](CCC(=O)O)NC(=O)c1cc2ccccc2[nH]1 | 33.9 µM (inactive) | 50.4 µM (inactive) | 88.5 µM (inactive) | 61 µM (inactive) | 55.3 µM (inactive) | > 100 µM (inactive) | 42.7 µM (inactive) | > 100 µM (inactive) | – | > 100 µM (inactive) | 20.2 µM (inactive) | 36.6 µM (inactive) | 49.2 µM (inactive) | 59.7 µM (inactive) | 41.2 µM (inactive) | 31 µM (inactive) | 33.4 µM (inactive) | 24.9 µM (inactive) | > 100 µM (inactive)
8 | CC(=O)OCC1OC(n2cc(I)c(=O)[nH]c2=O)C(OC(C)=O)C(OC(C)=O)C1OC(C)=O (centres undefined) | > 100 µM (inactive) | > 100 µM (inactive) | > 100 µM (inactive) | > 100 µM (inactive) | > 100 µM (inactive) | > 100 µM (inactive) | > 100 µM (inactive) | > 100 µM (inactive) | > 100 µM (inactive) | > 100 µM (inactive) | > 100 µM (inactive) | > 100 µM (inactive) | > 100 µM (inactive) | > 100 µM (inactive) | – | > 100 µM (inactive) | > 100 µM (inactive) | > 100 µM (inactive) | > 100 µM (inactive)
